Our source for the EC50 values is patent US12180226B2, “Spirotricycle RIPK1 inhibitors and methods of uses thereof” (Merck Sharp & Dohme LLC, priority 2021, dated 2024).

The term EC50 denotes the concentration giving half of the maximal effect.

Structures can show the parent of a compound that is named as a salt.

RIPK1 (recombinant GST-RIPK1 kinase domain, residues 1-327), sequence (Q13546 1-327): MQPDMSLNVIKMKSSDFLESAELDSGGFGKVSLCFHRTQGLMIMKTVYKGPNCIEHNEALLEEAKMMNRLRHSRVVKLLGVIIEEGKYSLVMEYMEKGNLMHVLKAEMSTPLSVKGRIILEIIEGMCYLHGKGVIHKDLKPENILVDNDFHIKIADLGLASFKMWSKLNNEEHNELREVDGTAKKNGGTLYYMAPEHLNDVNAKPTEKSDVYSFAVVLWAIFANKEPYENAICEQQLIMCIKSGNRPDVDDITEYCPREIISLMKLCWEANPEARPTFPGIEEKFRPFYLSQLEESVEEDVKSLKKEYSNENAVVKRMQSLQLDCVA

This test has as its target RIPK1 (recombinant GST-RIPK1 kinase domain, residues 1-327) (Homo sapiens (Human), UniProt Q13546). The experiment in a line: RIPK1-ADP-Glo Enzymatic Assay. It counts as biochemical. The settings on record: ADP-Glo; 25 nM GST-RIPK1, 300 μM ATP; assay lower limit ~25 nM; read-out: RIPK1 V0 Ec50. In outline: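 Compounds titrated 10-pt 1:3 from 100000 nM top (1% DMSO); 30 min preinc w/ 25 nM Sf21-expressed enzyme, RT; start w/ ATP (300 μM final) + dephos-MBP (3 μM); 150 min; ADP-Glo lumi; 4-param fit → EC50.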
In general terms: In ADP-Glo the light output rises with the ADP produced.
In the case of `Cc1ccccc1S(=O)(=O)N1CCC2(CC1)O[C@@H]1CC[C@@H](c3cc(F)cc(F)c3)N1C2=O` [Example 8.2, (5′S,7a′R)-5′-(3,5-difluorophenyl)-1-[(2-methylphenyl)sulfonyl] tetrahydro-3′H-spiro[piperidine-4,2′-pyrrolo[2,1-b][1,3]oxazol]-3′-one], the EC50 amounted to 685 nM.

`O=C1N2[C@@H](CC[C@H]2c2cc(F)cc(F)c2)OC12CCN(c1ccnc3ncnn13)CC2` [Example 4.83, (5′S,7a′R)-1-([1,2,4]triazolo[1,5-a]pyrimidin-7-yl)-5′-(3,5-difluorophenyl)tetrahydro-3′H-spiro[piperidine-4,2′-pyrrolo[2,1-b]oxazol]-3′-one, TFA salt]: the 50% effective concentration (EC50) was determined as 363 nM. With `N#Cc1ccnc(N2CCC3(CC2)O[C@@H]2CC[C@@H](c4cc(F)cc(F)c4)N2C3=O)c1` [Example 4.8, 2-[(5′S,7a′R)-5′-(3,5-difluorophenyl)-3′-oxotetrahydro-1H,3′H-spiro[piperidine-4,2′-pyrrolo[2,1-b] [1,3]oxazol]-1-yl]pyridine-4-carbonitrile] the figure was below 25 nM; with `Cc1ccc(F)c(C(=O)N2CCC3(CC2)O[C@@H]2CC[C@@H](c4cc(F)cc(F)c4)N2C3=O)n1` [Example 6.104, (5′S,7a′R)-5′-(3,5-difluorophenyl)-1-(3-fluoro-6-methylpyri-dine-2-carbonyl)tetra-hydro-3′H-spiro[piperi-dine-4,2′-pyrrolo[2,1-b][1,3]oxazol]-3′-one], 32.2 nM; with `Cc1ncc([C@@H]2CC[C@H]3OC4(CCN(c5ccnc6c(F)cnn56)CC4F)C(=O)N32)cc1F` (stereo partly drawn) [Example 4.131, (5′S,7a′R)-3-fluoro-5′-(5-fluoro-6-methylpyridin-3-yl)-1-(3-fluoropyrazolo[1,5-a]pyrimidin-7-yl)tetrahydro-3′H-spiro[piperidine-4,2′-pyrrolo[2,1-b] [1,3]oxazol]-3′-one], 30.6 nM.

As for `CC1CN(c2ncnc3ccnn23)CCC12O[C@@H]1CC[C@@H](c3cc(F)cc(F)c3)N1C2=O` (stereo partly drawn) [Example 4.264, (5′S,7a′R)-5′-(3,5-difluorophenyl)-3-methyl-1-(pyrazolo[1,5-a] [1,3,5]triazin-4-yl)tetrahydro-3′H-spiro[piperidine-4,2′-pyrrolo[2,1-b] [1,3]oxazol]-3′-one], the EC50 was below 25 nM. For `CC1C[C@@]2(CCN1C(=O)c1ccccc1)O[C@@H]1CC[C@@H](c3cccc(F)c3)N1C2=O` (stereo partly drawn) [Example 6.161, (4R,5′S,7a′R)-1-(benzenecarbonyl)-5′-(3-fluorophenyl)-2-methyltetrahydro-3′H-spiro[piperidine-4,2′-pyrrolo[2,1-b][1,3]-oxazol]-3′-one], the EC50 came to 275 nM. For the compound `N#Cc1cc(N2CCC3(CC2)O[C@@H]2CC[C@@H](c4cc(F)cc(F)c4)N2C3=O)ncn1` [Example 4.4, 6-[(5′S,7a′R)-5′-(3,5-difluorophenyl)-3′-oxotetrahydro-1H,3′H-spiro[piperidine-4,2′-pyrrolo[2,1-b] [1,3]oxazol]-1-yl]pyrimidine-4-carbonitrile], the concentration giving a half-maximal response (EC50) is below 25 nM. Turning to `O=C(c1nsnc1Cl)N1CCC2(CC1)O[C@@H]1CC[C@@H](c3cc(F)cc(F)c3)N1C2=O` [Example 6.19, (5′S,7a′R)-1-(4-chloro-1,2,5-thiadi-azole-3-carbonyl)-5′-(3,5-difluorophenyl)-tetrahydro-3′H-spiro [piperidine-4,2′-pyrrolo[2,1-b][1,3]oxazol]-3′-one], the EC50 was below 25 nM.

Consider `CC1(NC(=O)c2nc(N3CCC4(CC3)O[C@@H]3CC[C@@H](c5cc(F)cc(F)c5)N3C4=O)ncc2F)CC1` [Example 7.11, 2-[(5′S,7a′R)-5′-(3,5-difluorophenyl)-3′-oxotetrahydro-1H,3′H-spiro[piperidine-4,2′-pyrrolo[2,1-b][1,3]oxazol]-1-yl]-5-fluoro-N-(1-methyl-cyclopropyl)pyrimidine-4-carboxamide], for which the EC50 was 92.2 nM.

Turning to `N#Cc1cnc(N2CC3(C2)O[C@@H]2CC[C@@H](c4ccccc4F)N2C3=O)nc1` [Example 4.119, 2-((5′S,7a′R)-5′-(2-fluorophenyl)-3′-oxotetrahydro-3′H-spiro[azetidine-3,2′-pyrrolo[2,1-b]oxazol]-1-yl)pyrimidine-5-carbonitrile], the EC50 was determined as 537 nM. With `N#Cc1cnc(N2CCC3(CC2)O[C@@H]2CC[C@@H](c4cc(F)cc(F)c4)N2C3=O)cc1F` [Example 4.75, 6-[(5′S,7a′R)-5′-(3,5-difluorophenyl)-3′-oxotetrahydro-1H,3′H-spiro[piperidine-4,2′-pyrrolo[2,1-b] [1,3]oxazol]-1-yl]-4-fluoropyridine-3-carbonitrile] the figure was below 25 nM; with `O=C(c1ncnc2c1CCC2)N1CCC2(CC1)O[C@@H]1CC[C@@H](c3cc(F)cc(F)c3)N1C2=O` [Example 6.15, (5′S,7a′R)-5′-(3,5-difluorophenyl)-1-(6,7-dihydro-5H-cyclopenta[d]pyrim-idine-4-carbonyl)-tetrahydro-3′H-spiro [piperidine-4,2′-pyrrolo-[2,1-b][1,3]oxazol]-3′-one], 547 nM. Then `O=C(c1ccccc1)N1CCC2(CC1)O[C@@H]1CC[C@@H](c3ccccc3)N1C2=O` [Example 1.3, (5′S,7a′R)-1-(benzenecarbonyl)-5′-phenyltetrahydro-3′H-spiro[piperidine-4,2′-pyrrolo[2,1-b] [1,3]oxazol]-3′-one], with below 25 nM. Then `O=C(c1ccc2sncc2c1)N1CCC2(CC1)O[C@@H]1CC[C@@H](c3cc(F)cc(F)c3)N1C2=O` [Example 6.65, (5′S,7a′R)-1-(1,2-benzothiazole-5-carbonyl)-5′-(3,5-difluorophenyl)tetra-hydro-3′H-spiro [piperidine-4,2′-pyrrolo[2,1-b][1,3]-oxazol]-3′-one], with below 25 nM; and `O=C(c1ccoc1C(F)(F)F)N1CCC2(CC1)O[C@@H]1CC[C@@H](c3cc(F)cc(F)c3)N1C2=O` [Example 6.67, (5′S,7a′R)-5′-(3,5-difluorophenyl)-1-[2-(trifluoromethyl)-furan-3-carbonyl]-tetrahydro-3′H-spiro [piperidine-4,2′-pyrrolo[2,1-b][1,3]-oxazol]-3′-one], with 50 nM; and `O=C(c1cccc(F)c1)N1CCC2(CC1)O[C@@H]1CC[C@@H](c3ccc(F)cc3)N1C2=O` [Example 7.1, (5′S,7a′R)-1-(3-Fluorobenzoyl)-5′-(4-fluorophenyl)tetrahydro-3′H-spiro[piperidine-4,2′-pyrrolo[2,1-b]oxazol]-3′-one], with 121 nM. As to `N#Cc1ccc(C(=O)N2CCC3(CC2)O[C@@H]2CC[C@@H](c4cc(F)cc(F)c4)N2C3=O)cc1` [Example 5.21, 4-((5′S,7a′R)-5′-(3,5-difluorophenyl)-3′-oxo-tetrahydro-3′H-spiro [piperidine-4,2′-pyrrolo-[2,1-b]oxazole]-1-carbon-yl)benzonitrile], the 50% effective concentration (EC50) is 342 nM. Then `Cc1nc(N2CCC3(CC2)O[C@@H]2CC[C@@H](c4ccccc4)N2C3=O)ncc1-c1ccnn1C` [Example 21.8, (5′S,7a′R)-1-[4-methyl-5-(1-methyl-1H-pyrazol-5-yl)pyrimidin-2-yl]-5′-phenyltetrahydro-3′H-spiro[piperidine-4,2′-pyrrolo[2,1-b][1,3]oxazol]-3′-one], with 36.6 nM; and `O=C(c1ncccc1F)N1CCC2(CC1)O[C@@H]1CC[C@@H](c3cc(F)cc(F)c3)N1C2=O` [Example 6.54, (5′S,7a'R)-5′-(3,5-difluorophenyl)-1-(3-fluoropyridine-2-carbonyl)tetrahydro-3′H-spiro[piperidine-4,2′-pyrrolo[2,1-b] [1,3]oxazol]-3-one], with 45.1 nM. Then `O=C1N2[C@@H](CC[C@H]2c2cncc(F)c2)OC12CCN(c1ccnc3c(F)cnn13)CC2` [Example 4.84, (5′S,7a′R)-1-(3-fluoropyrazolo[1,5-a]pyrimidin-7-yl)-5′-(5-fluoropyridin-3-yl)tetrahydro-3′H-spiro[piperidine-4,2′-pyrrolo[2,1-b]oxazol]-3′-one, TFA salt], with 29.3 nM; and `N#Cc1ccc(C(=O)N2CCC3(CC2)O[C@@H]2CC[C@@H](c4cc(F)cc(F)c4)N2C3=O)c(Cl)c1` [Example 5.22, 3-chloro-4-((5′S,7a′R)-5′-(3,5-difluorophenyl)-3′-oxotetrahydro-3′H-spiro [piperidine-4,2′-pyrrolo-[2,1-b]oxazole]-1-carbon-yl)benzonitrile], with 392 nM; and `N#Cc1ccc(C(=O)N2CCC3(CC2)O[C@@H]2CC[C@@H](c4cc(F)cc(F)c4)N2C3=O)cc1F` [Example 5.19, 4-((5′S,7a′R)-5′-(3,5-difluorophenyl)-3′-oxo-tetrahydro-3′H-spiro [piperidine-4,2′-pyrrolo-[2,1-b]oxazole]-1-carbon-yl)-2-fluorobenzonitrile], with 333 nM. Then `O=C1N2[C@@H](CC[C@H]2c2ccccc2)OC12CCN(c1cc(OC3CCC3)ccn1)CC2` [Example 11.20, (5′S,7a′R)-1-[4-(cyclobutyloxy)pyridin-2-yl]-5′-phenyltetrahydro-3′H-spiro[piperidine-4,2′-pyrrolo[2,1-b][1,3]oxazol]-3′-one], with 26.9 nM; and `O=C(c1cccc(N2CCOCC2)c1)N1CCC2(CC1)O[C@@H]1CC[C@@H](c3cc(F)cc(F)c3)N1C2=O` [Example 6.47, (5′S,7a′R)-5′-(3,5-difluorophenyl)-1-[3-(morpholin-4-yl)-benzene-1-carbonyl]-tetrahydro-3′H-spiro [piperidine-4,2′-pyrrolo[2,1-b][1,3]oxazol]-3′-one], with below 25 nM; and `Cc1cc(N2CCC3(CC2)O[C@@H]2CC[C@@H](c4ccccc4)N2C3=O)cs1` [Example 11.10, (5′S,7a′R)-1-(5-methylthiophen-3-yl)-5′-phenyltetrahydro-3′H-spiro[piperidine-4,2′-pyrrolo[2,1-b][1,3]oxazol]-3′-one], with 253 nM.
